From patent EP4685142A1, “TRIAZINE COMPOUND AND USE THEREOF” (Chengdu Zenitar Biomedical Technology Co., Ltd., priority 2023, dated 2024)
pIC50: −log10 of the molar value.

Molecular target: T1, NLRP3 inflammasome (Homo sapiens, UniProt Q96P20)
T1 construct: host or cells: THP-1 cells
Experiment: Inhibitory activity of NLRP3 inflammasome in human monocytes (THP-1 cells, LPS + Nigericin, IL-1β ELISA)
Format: cell-based
Details: not given
Procedure: 1. Determination of inhibitory activity of NLRP3 inflammasome in human monocytes
Experimental method: THP-1 cells were cultured in RPMI culture medium containing PMA (10 µM), and then inoculated in 48-well plates at a density of 2×10^5 cells/mL, the plates were incubated overnight in a 5% CO2 incubator at 37°C. The next day, the above culture medium was replaced with Opti-MEM culture medium containing 1 µg/mL LPS. After 3 hours, the grown cells were simulated for 40 min with a drug, and then simulated for 40 min with Nigericin (10 µM), and a cell supernatant was harvested for ELISA analysis.
Table 2 Inhibitory activity of NLRP3 inflammasome

T1 sequence (Q96P20 whole entry): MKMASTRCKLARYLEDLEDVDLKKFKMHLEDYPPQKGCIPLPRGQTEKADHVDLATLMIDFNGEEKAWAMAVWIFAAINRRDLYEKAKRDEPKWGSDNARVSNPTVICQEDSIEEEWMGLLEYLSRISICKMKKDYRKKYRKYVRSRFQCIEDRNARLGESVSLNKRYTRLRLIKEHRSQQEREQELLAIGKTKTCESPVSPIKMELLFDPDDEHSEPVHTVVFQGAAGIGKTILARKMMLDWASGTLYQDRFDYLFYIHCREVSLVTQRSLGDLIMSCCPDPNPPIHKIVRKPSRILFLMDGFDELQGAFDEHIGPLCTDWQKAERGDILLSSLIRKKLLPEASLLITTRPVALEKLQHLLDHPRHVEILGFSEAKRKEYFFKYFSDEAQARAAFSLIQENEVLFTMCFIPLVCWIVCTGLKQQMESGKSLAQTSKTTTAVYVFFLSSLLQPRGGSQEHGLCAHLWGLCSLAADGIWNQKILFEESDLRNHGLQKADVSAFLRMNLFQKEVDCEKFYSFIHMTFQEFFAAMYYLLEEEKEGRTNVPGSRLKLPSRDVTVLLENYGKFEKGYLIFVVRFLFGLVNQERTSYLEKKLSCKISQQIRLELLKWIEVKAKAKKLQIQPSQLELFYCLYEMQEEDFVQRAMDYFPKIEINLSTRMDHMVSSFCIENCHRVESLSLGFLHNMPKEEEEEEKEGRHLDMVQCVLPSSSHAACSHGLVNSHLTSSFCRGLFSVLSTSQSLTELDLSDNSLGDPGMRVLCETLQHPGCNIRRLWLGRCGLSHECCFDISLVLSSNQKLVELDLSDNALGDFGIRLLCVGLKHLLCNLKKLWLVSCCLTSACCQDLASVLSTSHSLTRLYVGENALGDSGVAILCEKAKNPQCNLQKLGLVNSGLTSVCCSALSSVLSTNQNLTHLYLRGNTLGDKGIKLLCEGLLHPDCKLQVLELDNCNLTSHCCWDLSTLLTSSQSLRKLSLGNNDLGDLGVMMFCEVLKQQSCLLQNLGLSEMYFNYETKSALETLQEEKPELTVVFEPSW

Row | Structure (SMILES) | pIC50
1 | CN1CCC[C@@H](Nc2nnc(-c3ccc(-c4ccc(F)cc4)cc3O)n(C)c2=O)C1 [Compound 46, (R)-3-(4'-fluoro-3-hydroxy-[1,1'-biphenyl]-4-yl)-4-methyl-6-((1-methylpiperidin-3-yl)amino)-1,2,4-triazin-5(4H)-ketone] | 7.59

Same assay, conditions: THP-1 cells, PMA, LPS 1 µg/mL 3 h, drug 40 min, Nigericin 10 µM 40 min, IL-1β ELISA; read-out: IC50

Row | Structure (SMILES) | pIC50
2 | CC#Cc1ccc(-c2nnc(N[C@@H]3CCCN(CCO)C3)c(=O)n2C)c(O)c1 [Compound 29, (R)-6-((1-(2-hydroxyethyl)piperidin-3-yl)amino)-3-(2-hydroxy-4-(prop-1-yn-1-yl)phenyl)-4-methyl-1,2,4-triazin-5(4H)-ketone] | 7.33
3 | C#Cc1ccc(-c2nnc(N[C@@H]3CCCN(CC)C3)c(=O)n2C)c(O)c1 [Compound 25, (R)-6-((1-ethylpiperidin-3-yl)amino)-3-(4-ethynyl-2-hydroxyphenyl)-4-methyl-1,2,4-triazin-5 (4H)-ketone] | 8.17
4 | CC#Cc1ccc(-c2nnc(N[C@@H]3CCCN(C)C3)c(=O)n2C)c(O)c1 [Compound 27, (R)-3-(2-hydroxy-4-(prop-1-yn-1-yl)phenyl)-4-methyl-6-((1-methylpiperidin-3-yl)amino)-1,2,4-triazin-5(4H)-ketone] | 7.84
5 | [2H]C([2H])([2H])N1CCC[C@@H](Nc2nnc(-c3ccc4sccc4c3O)n(C)c2=O)C1 [Compound 10, (R)-3-(4-hydroxybenzo[b]thiophen-5-yl)-4-methyl-6-((1-(methyl-d3)piperidin-3-yl)amino)-1,2,4-triazin-5(4H)-ketone] | 8.41
6 | CN1CCCC2CCN(c3nnc(-c4ccc5sccc5c4O)n(C)c3=O)C21 (stereo not drawn) [Compound 48, 3-(4-hydroxybenzo[b]thiophen-5-yl)-4-methyl-6-(7-methyloctahydro-1H-pyrrolo[2,3-b]pyridin-1-yl)-1,2,4-triazin-5(4H)-ketone] | 7.73
7 | C#Cc1ccc(-c2nnc(N[C@@H]3CCCN(CCO)C3)c(=O)n2C)c(O)c1 [Compound 26, (R)-3-(4-ethynyl-2-hydroxyphenyl)-6-((1-(2-hydroxyethyl)piperidin-3-yl)amino)-4-methyl-1,2,4-triazin-5(4H)-ketone] | 7.60

Same assay, conditions: read-out: IC50

Row | Structure (SMILES) | pIC50
8 | CN1CCC[C@@H](Nc2nnc(-c3ccc(C#CC4CC4)cc3O)n(C)c2=O)C1 [Compound 44, (R)-3-(4-(cyclopropylethynyl)-2-hydroxyphenyl)-4-methyl-6-((1-methylpiperidin-3-yl)amino) -1,2,4-triazin-5(4H)-ketone] | 7.10
9 | CN1CCO[C@H](CNc2nnc(-c3ccc4sccc4c3O)n(C)c2=O)C1 [Compound 34, (R)-3-(4-hydroxybenzo[b]thiophen-5-yl)-4-methyl-6-(((4-methylmorpholino-2-yl)methyl)amino)-1,2,4-triazine-5(4H)-ketone] | 7.12
10 | [2H]C([2H])([2H])C([2H])([2H])N1CCC[C@@H](Nc2nnc(-c3ccc4c(c3O)CCC4=C(F)F)n(C)c2=O)C1 [Compound 15, (R)-3-(1-(difluoromethylene)-4-hydroxy-2,3-dihydro-1H-inden-5-yl)-6-((1-(ethyl-d5)piperidin-3-yl)amino)-4-methyl-1,2,4-triazin-5(4H)-ketone] | 8.84
11 | Cn1c(-c2ccc3c(c2O)CCC3=C(F)F)nnc(N[C@@H]2CCCN(CCO)C2)c1=O [Compound 1, (R)-3-(1-(difluoromethylene)-4-hydroxy-2,3-dihydro-1H-inden-5-yl)-6-((1-(2-hydroxyethyl)piperidin-3-yl)amino)-4-methyl-1,2,4-triazin-5(4H)-ketone] | 8.37
12 | CN1CCC[C@@H](Nc2nnc(-c3ccc(C4CC4)cc3O)n(C)c2=O)C1 [Compound 39, (R)-3-(4-cyclopropyl-2-hydroxyphenyl)-4-methyl-6-((1-methylpiperidin-3-yl)amino)-1,2,4-tri azin-5(4H)-ketone] | 7.52
13 | CN1C[C@H](Nc2nnc(-c3ccc4sccc4c3O)n(C)c2=O)CC(F)(F)C1 [Compound 37, (R)-6-((5,5-difluoro-1-methylpiperidin-3-yl)amino)-3-(4-hydroxybenzb[b]thiophen-5-yl)-4-m ethyl-1,2,4-triazin-5(4H)-ketone] | 7.82
14 | C[C@@H]1[C@H](Nc2nnc(-c3ccc4sccc4c3O)n(C)c2=O)CCCN1C [Compound 49, 6-(((2R,3R)-1,2-dimethylpiperidin-3-yl)amino)-3-(4-hydroxybenzo[b]thiophen-5-yl)-4-methy 1-1,2,4-triazin-5(4H)-ketone] | 8.09
15 | CN1CCC[C@@H](Nc2nnc(-c3ccc4sccc4c3O)n(C3CC3)c2=O)C1 [Compound 21, (R)-4-cyclopropyl-3-(4-hydroxybenzo[b]thiophen-5-yl)-6-((1-methylpiperidin-3-yl)amino)-1,2,4-triazin-5(4H)-ketone] | 8.45
16 | Cn1c(-c2ccc3ccccc3c2O)nnc(N[C@@H]2CCCC[C@H]2O)c1=O [Compound 33, 6-(((1R,2R)-2-hydroxycyclohexyl)amino)-3-(1-hydroxynaphthalene-2-yl)-4-methyl-1,2,4-tria zine-5(4H)-ketone] | 7.90
17 | [2H]C([2H])([2H])C([2H])([2H])N1CCC[C@@H](Nc2nnc(-c3ccc4ccccc4c3O)n(C)c2=O)C1 [Compound 7, (R)-6-((1-(ethyl-d5)piperidin-3-yl)amino)-3-(1-hydroxynaphthalen-2-yl)-4-methyl-1,2,4-triazi n-5(4H)-ketone] | 7.66
18 | CCN1CCC[C@@H](Nc2nnc(-c3ccc4sccc4c3O)n(C3CC3)c2=O)C1 [Compound 22, (R)-4-cyclopropyl-6-((1-ethylpiperidin-3-yl)amino)-3-(4-hydroxybenzo[b]thiophen-5-yl)-1,2,4-triazin-5(4H)-ketone] | 8.59
19 | CN1CCC[C@@H](Nc2nnc(-c3ccc4sccc4c3OC(F)F)n(C)c2=O)C1 [Compound 38, (R)-3-(4-(difluoromethoxy)benzo[b]thiophen-5-yl)-4-methyl-6-((1-methylpiperidin-3-yl)amino)-1,2,4-triazin-5(4H)-ketone] | 6.59
20 | C#Cc1ccc(-c2nnc(N[C@@H]3CCCC[C@H]3O)c(=O)n2C)c(O)c1 [Compound 31, 3-(4-ethynyl-2-hydroxyphenyl)-6-(((1R,2R)-2-hydroxycyclohexyl)amino)-4-methyl-1,2,4-tria zin-5(4H)-ketone] | 8.44
21 | CCN1CCC[C@@H](Nc2nnc(-c3ccc(C#CC4CC4)cc3O)n(C)c2=O)C1 [Compound 45, (R)-3-(4-(cyclopropylethynyl)-2-hydroxyphenyl)-6-((1-ethylpiperidin-3-yl)amino)-4-methyl-1 ,2,4-triazin-5(4H)-ketone] | 6.46
22 | CN1CCC[C@@H](Nc2nnc(-c3ccc(-c4ncccn4)cc3O)n(C)c2=O)C1 [Compound 47, (R)-3-(2-hydroxy-4-(pyrimidin-2-yl)phenyl)-4-methyl-6-((1-methylpiperidin-3-yl)amino)-1,2,4-triazin-5(4H)-ketone] | 6.35
23 | CC#Cc1ccc(-c2nnc(N[C@@H]3CCCC[C@H]3O)c(=O)n2C)c(O)c1 [Compound 32, 3-(2-hydroxy-4-(prop-1-yn-1-yl)phenyl)-6-(((1R,2R)-2-hydroxycyclohexyl)amino)-4-methyl-1,2,4-triazin-5(4H)-ketone.] | 8.07
24 | C[C@H]1CC[C@@H](Nc2nnc(-c3ccc4sccc4c3O)n(C)c2=O)CN1C [Compound 50, 6-(((3R,6S)-1,6-dimethylpiperidin-3-yl)amino)-3-(4-hydroxybenzo[b]thiophen-5-yl)-4-methyl-1,2,4-triazin-5 (4H)-ketone] | 6.46
